Legend:
[1] = tested on: BMDMs from WT and Nod2^2939iC (m/m) mice; assay: Cytokine secretion by stimulated BMDMs (ELISA, immunoblotting); assay type: cell-based, mouse
Procedure: Macrophage culture and treatment. BMDMs were cultured as described (Park et al., Science 297: 2048, 2002). Confluent cultures were treated with different bacterial components including MDP (Bachem), synthetic peptidoglycan-Pam3Cys (InvivoGen), natural gram positive peptidoglycan (from S. aureus, Sigma), LPS (from E. coli, Sigma), and CpG-DNA (TIB MOLBIOL). At the indicated time points the cells or culture supernatants were collected and used to prepare cytoplasmic and nuclear protein extracts or total cellular RNA.
Gene expression analyses. Protein lysates were prepared from tissues and cultured macrophages, separated by SDS-polyacrylamide gel electrophoresis, transferred to Immobilon membranes (Millipore) and analyzed by immunoblotting. Total cellular RNA was extracted using TRIZOL (Invitrogen). cDNA was generated using SuperScript II (Invitrogen) and the amounts of the different mRNAs were measured by real-time PCR using GAPDH mRNA for normalization. Primer sequences are available upon request. Cytokine levels were measured using enzyme linked immunoadsorbent assays (ELISA).

WT and Nod2^2939iC mice = assay: DSS colitis with IL-1RA or antibiotic treatment, body weight, survival and histological scoring; assay type: in vivo; conditions: for mortality: 3% DSS for 6 days, by 10 days after DSS exposure
Procedure: DSS colitis, IL-1RA treatment and histological scoring. Mice (8-12 weeks old) were given DSS (ICN Biomedicals Inc.) in the drinking water for 6 days as indicated and placed on regular water thereafter. When indicated, mice were also treated with neomycin sulfate (1.5 g/L) and metronidazole (1.5 g/L) (both from Sigma) in the drinking water or injected i.p. with either IL-1RA (Kineret®, Amgen Inc.) (100 mg/kg) in PBS or PBS alone once daily throughout the experiment. […] Histological scoring of fixed (10% formaldehyde) and sectioned (paraffin embedded) tissue was performed in a blinded manner. The scores were: 0=normal, 1=moderate mucosal inflammation without ulcer, 2=severe mucosal inflammation with ulcer (<1 mm) or no ulcer, 3=severe mucosal inflammation with ulcer (1-3 mm), 4=severe mucosal inflammation with ulcer (>3 mm).

Compound: CC(=O)N[C@H]1C(O)O[C@H](CO)[C@@H](O)[C@@H]1O[C@H](C)C(=O)N[C@@H](C)C(=O)N[C@H](CCC(=O)O)C(N)=O (mixture of isomers) [MDP, muramyl dipeptide]
- IL-6 secretion ([1]; BMDMs stimulated with MDP): neither IL-6 nor TNFα were secreted
- release of mature IL-1β ([1]; Nod2^2939iC macrophages, MDP 1 μg/ml, 24 hrs): stimulated release of mature IL-1β

Compound: IL-1RA: IL-1 receptor antagonist (IL-1RA) (Kineret®, Amgen Inc.)
- Average body weight loss (WT and Nod2^2939iC mice; 3% DSS in drinking water for 6 days, IL-1RA 100 mg/kg i.p. once daily from the start of DSS exposure, WT and Nod2^2939iC mice): improved
- differences in weight loss and inflammatory score between the genotypes (WT and Nod2^2939iC mice; 3% DSS plus IL-1RA 100 mg/kg/day, WT vs Nod2^2939iC mice): abolished
- histological score (WT and Nod2^2939iC mice; 11 days after initiation of 3% DSS, IL-1RA 100 mg/kg/day i.p., WT and Nod2^2939iC mice): improved
- colon histology: inflammation and ulceration compared to DSS alone (WT and Nod2^2939iC mice; 11 days after initiation of DSS plus IL-1RA (100 mg/kg/day), WT and Nod2^2939iC mice): decreased inflammation and ulceration

Compound: dextran sodium sulfate [DSS]
- mortality (WT and Nod2^2939iC mice; Nod2^2939iC mice (n=16)): 37.5%
- mortality (WT and Nod2^2939iC mice; WT mice (n=19)): 0%
- time to death after DSS administration (WT and Nod2^2939iC mice; 6% DSS without oral antibiotics, WT and Nod2^2939iC mice): ≤ 9 days

Source: patent publication US20080260753A1, “Mouse Models of Crohn's Disease and a Method to Develop Specific Therapeutics” (priority 2004, published 2008)
